Molecules are shown by their SMILES. Read-outs that look alike come from different tables or passages of the source.

The test system of the test is SARS-CoV-2 (Omicron variant). In words: microbe, parasite or virus in culture. It is filed as cell-based.
Where [1] appears, read: Severe acute respiratory syndrome coronavirus 2, read-out: EC50 (μM) SARS-CoV-2/VeroE6-GFP.
[2] abbreviates: Severe acute respiratory syndrome coronavirus 2, read-out: EC50 (μM) SARS-CoV-2 / VeroE6-GFP.
The mark [3] stands for this setting: Severe acute respiratory syndrome coronavirus 2, Vero C1008, read-out: EC50 / activity in SARS-CoV-2 VeroE6 antiviral assay.

As for `COc1cccc(-c2ccc(C(=O)N[C@@H](CC(C)C)C(=O)N[C@H](C#N)C[C@@H]3CCNC3=O)cc2)c1` [6e], under setting [1], the EC50 came to 12.5 ± 0.5 µM.

As for `COc1ccc(-c2ccc(C(=O)N[C@@H](CC(C)C)C(=O)N[C@H](C#N)C[C@@H]3CCNC3=O)cc2)cc1OC` [6f], the EC50 under setting [1] stood at 11.9 ± 0.1 µM. Same read-out and setting: the value for `CC(C)C[C@H](NC(=O)c1ccc(-c2cccc3nn(C)cc23)cc1)C(=O)N[C@H](C#N)C[C@@H]1CCNC1=O` [6j] was 12.1 ± 0.5 µM; that for `CC(C)C[C@H](NC(=O)c1ccc(-c2ccc3c(cnn3C)c2)cc1)C(=O)N[C@H](C#N)C[C@@H]1CCNC1=O` [6l] was 11.1 ± 0.3 µM. Consider `CC(C)C[C@H](NC(=O)c1ccc(-c2cccc3nn(C)cc23)cc1F)C(=O)N[C@H](C#N)C[C@@H]1CCNC1=O` [18a], for which, under setting [2], the EC50 stood at 4.18 µM. On the same count and under the same terms, the value for `COc1ccc(-c2ccc(C(=O)N[C@@H](CC(C)C)C(=O)N[C@H](C#N)C[C@@H]3CCNC3=O)c(F)c2)cc1` [18b] was 5.67 µM; that for `CC(C)C[C@H](NC(=O)c1ccc(-c2ccc3c(cnn3C)c2)cc1F)C(=O)N[C@H](C#N)C[C@@H]1CCNC1=O` [18c] was 6.34 µM; that for `COc1ccc(-c2ccc(C(=O)N[C@@H](CC(C)C)C(=O)N[C@H](C#N)C[C@@H]3CCNC3=O)c(C)c2)cc1` [18k] was 5.16 µM. The same measure, in the same setting: the result for `COc1ccc(-c2ccc(C(=O)N[C@@H](CC(C)C)C(=O)N[C@H](C#N)C[C@@H]3CCNC3=O)c(C(F)(F)F)c2)cc1` [18m] reads 2.56 µM. On to `COc1cccc(-c2ccc(C(=O)N[C@@H](CC(C)C)C(=O)N[C@H](C#N)C[C@@H]3CCNC3=O)c(Cl)c2)c1` [18n], for which the EC50 is, setting by setting: under setting [2], 2.18 µM; under setting [1], 2.18 ± 0.2 µM. On to `CC(C)C[C@H](NC(=O)c1ccc(-c2ccc3c(cnn3C)c2)cc1Cl)C(=O)N[C@H](C#N)C[C@@H]1CCNC1=O` [18o], for which, under setting [2], the EC50 is 4.25 µM. Same read-out and setting: the value for `CC(C)C[C@H](NC(=O)c1ccc(-c2cccc3nn(C)cc23)cc1Cl)C(=O)N[C@H](C#N)C[C@@H]1CCNC1=O` [18p] was 11.8 µM; that for `CC(C)C[C@H](NC(=O)c1ccc(-c2ccc3cnn(C)c3c2)cc1Cl)C(=O)N[C@H](C#N)C[C@@H]1CCNC1=O` [18q] was 3.02 µM; that for `COc1ccc(-c2ccc(C(=O)N[C@@H](CC(C)C)C(=O)N[C@H](C#N)C[C@@H]3CCNC3=O)c(Cl)c2)cc1` [18r] was 1.57 µM. In the case of `COc1ccc(-c2ccc(C(=O)N3C[C@H]4[C@@H]([C@H]3C(=O)N[C@H](C#N)C[C@@H]3CCNC3=O)C4(C)C)c(Cl)c2)cc1` [22e], the EC50 runs as follows: under setting [3], 0.2 to 0.3 µM; under setting [1], 0.289 ± 0.05 µM.

As for `COc1cccc(-c2ccc(C(=O)N3C[C@H]4[C@@H]([C@H]3C(=O)N[C@H](C#N)C[C@@H]3CCNC3=O)C4(C)C)c(Cl)c2)c1` [22f], the EC50 was 0.2 to 0.3 µM under setting [3] and 0.331 ± 0.05 µM under setting [1]. Turning to `COc1ccc(-c2ccc(C(=O)N[C@@H](CC3CCCCC3)C(=O)N[C@H](C#N)C[C@@H]3CCNC3=O)c(Cl)c2)cc1` [23c], under setting [1], the EC50 turned out to be 2.49 ± 0.2 µM.

Regarding `COc1cccc(-c2ccc(C(=O)N[C@@H](CC3CCCCC3)C(=O)N[C@H](C#N)C[C@@H]3CCNC3=O)c(Cl)c2)c1` [23d], under setting [1], the EC50 turned out to be 8.64 ± 0.3 µM. With `CC(C)(C)[C@H](NC(=O)C(F)(F)F)C(=O)N1C[C@H]2[C@@H]([C@H]1C(=O)N[C@H](C#N)C[C@@H]1CCNC1=O)C2(C)C` [nirmatrelvir, reference compound], the EC50 was 0.1 to 0.18 µM under setting [3] and 0.101 ± 0.2 µM under setting [1].

(Values after article PMC12516390 (ACS Medicinal Chemistry Letters, 2025).)
